Data on 22 molecules can be found in patent US6660885B2, “Polycyclic aryl and heteroaryl substituted benzenes useful for selective inhibition of the coagulation cascade” (Pharmacia Corporation, priority 2000, dated 2003).

Usually IC50 stands for the concentration at which inhibition is half-maximal.

Like-named read-outs stand apart in the source and are kept apart here.

Common to all, as to type: biochemical
The target in assay [1] is T1, trypsin, type IX from porcine pancreas (Sus scrofa, UniProt P00761).
T1 construct: purchased Sigma, St. Louis Mo; host or cells: porcine pancreas
T1 sequence (P00761 9-231): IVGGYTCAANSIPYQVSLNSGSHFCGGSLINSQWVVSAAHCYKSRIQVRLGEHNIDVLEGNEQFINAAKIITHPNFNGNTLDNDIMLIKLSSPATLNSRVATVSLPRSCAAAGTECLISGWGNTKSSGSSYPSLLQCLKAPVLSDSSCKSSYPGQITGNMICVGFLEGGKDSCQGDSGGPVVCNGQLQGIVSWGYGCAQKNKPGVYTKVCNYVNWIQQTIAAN
The assay is described as follows: Trypsin Assay (L-BAPNA, 405 nm). As to the method: 5 ug/ml trypsin, type IX^0 from porcine pancreas and 0.375 mM N-α-Benzoyl-L-arginine-p-nitroanilide (L-BAPNA) are added to a 96-well assay plate containing either inhibitor or buffer (50 mM Tris-HCl, pH 8.0, 100 mM NaCl, 0.1% BSA). The reactions, in a final volume of 100 ul are measured immediately at 405 nm to determine background absorbance. The plate is incubated at room temperature for 60 min, at which time the rate of hydrolysis of the substrate is measured by monitoring the reaction at 405 nm for the release of p-nitroaniline. Percent inhibition of trypsin activity is calculated from OD405nm value from the experimental and control sample.
(§1) Recombinant soluble TF, consisting of amino acids 1-219 of the mature protein sequence was expressed in E. coli and purified using a Mono Q Sepharose FPLC. Recombinant human Vlla was purchased from American Diagnostica, Greenwich Conn. and chromogenic substrate N-Methylsulfonyl-D-phe-gly-arg-p-nitroaniline was prepared by American Peptide Company, Inc., Sunnyvale, Calif. Factor Xa was obtained from Enzyme Research Laboratories, South Bend Ind., thrombin from Calbiochem, La Jolla, Calif., and trypsin and L-BAPNA from Sigma, St. Louis Mo. The chromogenic substrates S-2765 and S-2238 were purchased from Chromogenix, Sweden.

Assay [2] has as its target human thrombin (Homo sapiens, UniProt P00734). The assay is described as follows: Thrombin Assay (chromogenic substrate, 405 nm). The note with it: for IC50: read-out: Thrombin II IC50; for Thrombin II percent inhibition: at 30 (uM).
Protocol: 0.28 nM human thrombin and 0.06 mM H-D-Phenylalanyl-L-pipecolyl-L-arginine-p-nitroaniline dihydrochloride are added to a 96-well assay plate containing either inhibitor or buffer (50 mM Tris-HCl, pH 8.0, 100 mM NaCl, 0.1% BSA). The reaction, in a final volume of 100 ul is measured immediately at 405 nm to determine background absorbance. The plate is incubated at room temperature for 60 min, at which time the rate of hydrolysis of the substrate is measured by monitoring the reaction at 405 nm for the release of p-nitroaniline. Percent inhibition of thrombin activity is calculated from OD405nm value from the experimental and control sample.
Assay [3] concerns the target T2, human factor Xa (Homo sapiens, UniProt P00742).
T2 construct: leads from XII to XIIa to XIa to IXa and to the conversion of X to Xa; purchased Enzyme Research Laboratories, South Bend Ind
Briefly: Xa Assay (chromogenic substrate S-2765, 405 nm). Here is the method:
0.3 nM human factor Xa and 0.15 mM N-a-Benzyloxycarbonyl-D-arginyl-L-glycyl-L-arginine-p-nitroaniline-dihydrochloride (S-2765) are added to a 96-well assay plate containing either inhibitor or buffer (50 mM Tris-HCl, pH 8.0, 100 mM NaCl, 0.1% BSA). The reaction, in a final volume of 100 ul is measured immediately at 405 nm to determine background absorbance. The plate is incubated at room temperature for 60 min, at which time the rate of hydrolysis of the substrate is measured by monitoring the reaction at 405 nm for the release of p-nitroaniline. Percent inhibition of Xa activity is calculated from OD405nm value from the experimental and control sample.
as §1

Assay [4] has as its target T3, recombinant soluble tissue factor and recombinant human factor VIIa (TF-VIIa) (Homo sapiens, UniProt P08709).
T3 construct: purchased American Diagnostica, Greenwich Conn; soluble TF made in house in E. coli
The assay is described as follows: TF-VIIa Assay (chromogenic substrate hydrolysis, 405 nm). The note with it: read-out: IF-VIIA IC50.
Protocol: In this assay 100 nM recombinant soluble tissue factor and 2 nM recombinant human factor VIla are added to a 96-well assay plate containing 0.4 mM of the substrate, N-Methylsulfonyl-D-phe-gly-arg-p-nitroaniline and either inhibitor or buffer (5 mM CaCI2, 50 mM Tris-HCl, pH 8.0, 100 mM NaCl, 0.1% BSA). The reaction, in a final volume of 100 ul is measured immediately at 405 nm to determine background absorbance. The plate is incubated at room temperature for 60 min, at which time the rate of hydrolysis of the substrate is measured by monitoring the reaction at 405 nm for the release of p-nitroaniline. Percent inhibition of TF-VIIa activity is calculated from OD405nm value from the experimental and control sample.

T2 sequence (P00742 235-488 limits assumed): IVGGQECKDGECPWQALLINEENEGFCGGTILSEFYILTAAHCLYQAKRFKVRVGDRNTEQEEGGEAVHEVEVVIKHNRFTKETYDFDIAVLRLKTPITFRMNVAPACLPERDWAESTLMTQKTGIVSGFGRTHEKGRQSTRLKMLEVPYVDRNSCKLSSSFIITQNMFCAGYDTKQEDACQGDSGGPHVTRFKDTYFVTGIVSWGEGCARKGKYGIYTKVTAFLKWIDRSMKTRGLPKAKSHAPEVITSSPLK
T2 sequence (P00742 41-179 limits assumed): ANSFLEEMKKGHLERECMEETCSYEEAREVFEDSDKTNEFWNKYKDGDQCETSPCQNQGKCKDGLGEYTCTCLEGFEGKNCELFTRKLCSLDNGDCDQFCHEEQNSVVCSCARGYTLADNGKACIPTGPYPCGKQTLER
T3 sequence (P08709 213-466 limits assumed): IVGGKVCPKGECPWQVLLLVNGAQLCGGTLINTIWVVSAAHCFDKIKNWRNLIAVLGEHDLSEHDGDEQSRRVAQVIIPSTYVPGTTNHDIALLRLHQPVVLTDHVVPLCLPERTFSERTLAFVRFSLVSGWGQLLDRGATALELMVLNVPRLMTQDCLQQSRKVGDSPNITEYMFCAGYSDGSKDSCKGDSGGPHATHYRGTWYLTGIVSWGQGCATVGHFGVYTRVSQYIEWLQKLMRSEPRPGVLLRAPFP
T3 sequence (P08709 61-212 limits assumed): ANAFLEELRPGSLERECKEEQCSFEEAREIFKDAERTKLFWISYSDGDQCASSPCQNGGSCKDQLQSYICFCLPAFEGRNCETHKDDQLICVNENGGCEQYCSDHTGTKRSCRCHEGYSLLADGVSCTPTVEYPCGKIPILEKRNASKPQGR
T3 sequence (P13726 33-251 partner limits assumed): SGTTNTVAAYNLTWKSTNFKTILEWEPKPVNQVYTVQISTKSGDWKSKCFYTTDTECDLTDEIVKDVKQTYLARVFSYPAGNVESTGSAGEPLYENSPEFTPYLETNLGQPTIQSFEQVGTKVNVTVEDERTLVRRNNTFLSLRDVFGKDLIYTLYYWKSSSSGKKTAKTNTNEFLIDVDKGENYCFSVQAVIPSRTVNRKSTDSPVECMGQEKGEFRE

Consider `N=C(N)c1ccc(CNC(=O)Cc2c(F)ccc(NCCc3ccccc3)c2F)cc1` [Example 16], for which the figures for the IC50 in assay [1] (read-out: Trpysin II IC50), in assay [2] and in assay [4] were 0.8 µM, 1.6 µM and 16.4 µM, respectively. Besides, the “Factor Xa percent inhibition” value in assay [3] (at 30 (uM)) was found to be 1% at 30.

`Cl.N=C(N)c1ccc(CNC(=O)c2cc(NS(=O)(=O)Cc3ccccc3)ccc2Sc2ccccc2)cc1` [Example 4] showed an IC50 in assay [1] of 0.3 µM. For the same molecule, the “Thrombin II percent inhibition” value in assay [2] was found to be 22% at 30.

Take `CN(C)c1ccc(CNC(=O)c2cc(NS(=O)(=O)Cc3ccccc3)ccc2Sc2ccccc2)cc1` [Example 2]: the IC50 in assay [1] (read-out: Trpysin II IC50) and in assay [2] was over 30 µM each time.

In the case of `N=C(N)c1ccc(CNC(=O)Cc2c(F)ccc(NS(=O)(=O)Cc3ccccc3)c2F)cc1` [Example 14], the results for the 50% inhibitory concentration (IC50) in assay [1] (read-out: Trpysin II IC50) and in assay [2] were 7.3 µM and about 30 µM, respectively.

On to `N=C(N)c1ccc(CNC(=O)Cc2c(-c3ccccc3)ccc(NCCc3ccccc3)c2F)cc1` [Example 17], for which the IC50 in assay [1] (read-out: Trpysin II IC50) came to 0.2 µM; in assay [2] it was 7 µM; in assay [4], 4 µM.

Consider `COc1c(NC(C)C)ccc(-c2ccccc2)c1CC(=O)NCc1ccc(C(=N)N)cc1` [Example 22], for which the IC50 in assay [1] (read-out: Trpysin II IC50) stood at 0.1 µM; in assay [2], 7.9 µM; in assay [4], 14.7 µM.

With `O=C(Cc1c(F)ccc(NS(=O)(=O)Cc2ccccc2)c1F)NCCCn1ccnc1` [Example 12], the IC50 in assay [1] (read-out: Trpysin II IC50) and in assay [2] was over 30 µM throughout.

Consider `CC(C)Nc1ccc(-c2cccc(N)c2)c(CC(=O)NCc2ccc(C(=N)N)cc2)c1F` [Example 21], for which, in assay [1] (read-out: Trpysin II IC50), the IC50 is under 0.04 µM. Besides, the “Factor Xa percent inhibition” value in assay [3] (concentration not given) is given as 18%.

For the molecule `CN(C)c1ccc(CNC(=O)Cc2c(F)ccc(NS(=O)(=O)Cc3ccccc3)c2F)cc1` [Example 10], the half-maximal inhibitory concentration (IC50) in assay [1] (read-out: Trpysin II IC50), in assay [2] and in assay [3] was over 30 µM in each case.

In the case of `O=C(NCC1CCNCC1)c1cc(NS(=O)(=O)Cc2ccccc2)ccc1Sc1ccccc1` [Example 1], the figures for the half-maximal inhibitory concentration (IC50) in assay [1] (read-out: Trpysin II IC50), in assay [2] and in assay [3] were 0.3 µM, over 30 µM and over 30 µM, respectively.

Regarding `N=C(N)NCCCNC(=O)c1cc(NS(=O)(=O)Cc2ccccc2)ccc1Sc1ccccc1` [Example 6], the IC50 in assay [1] (read-out: Trpysin II IC50), in assay [2], in assay [3] and in assay [4] was over 100 µM throughout.

Take `N=C(N)c1ccc(CNC(=O)Cc2c(-c3cccc(N)c3)ccc(NCc3ccccc3)c2F)cc1` [Example 20]: the IC50 in assay [1] (read-out: Trpysin II IC50) is 0.2 µM; in assay [2] it was 9 µM; in assay [3], over 30 µM; in assay [4], 0.67 µM.

Turning to `O=C(Cc1c(F)ccc(NS(=O)(=O)Cc2ccccc2)c1F)NCC1CCNCC1` [Example 9], the IC50 is 0.3 µM in assay [1] (read-out: Trpysin II IC50) and over 30 µM in assay [2].

On to `COc1c(NCCc2ccccc2)ccc(-c2ccccc2)c1CC(=O)NCc1ccc(C(=N)N)cc1` [Example 18], for which the IC50 in assay [1] (read-out: Trpysin II IC50) was 0.5 µM; in assay [2], 9.5 µM; in assay [3] it was over 30 µM; in assay [4], 25 µM.

For the molecule `N=C(N)NCCCCNC(=O)c1cc(NS(=O)(=O)Cc2ccccc2)ccc1Sc1ccccc1` [Example 7], the IC50 in assay [1] (read-out: Trpysin II IC50), in assay [2], in assay [3] and in assay [4] was over 100 µM throughout.

`N=C(N)NCCCCCNC(=O)Cc1c(F)ccc(NS(=O)(=O)Cc2ccccc2)c1F` [Example 15]: the IC50 in assay [1] (read-out: Trpysin II IC50) and in assay [2] was over 30 µM in each case.

For `N=C(N)NCCCCCNC(=O)c1cc(NS(=O)(=O)Cc2ccccc2)ccc1Sc1ccccc1` [Example 8], the half-maximal inhibitory concentration (IC50) in assay [1] (read-out: Trpysin II IC50), in assay [2], in assay [3] and in assay [4] was over 100 µM each time.

Take `N=C(N)c1ccc(CNC(=O)Cc2c(-c3ccccc3)ccc(NCCc3ccccc3)c2O)cc1` [Example 19]: the results for the IC50 in assay [1] (read-out: Trpysin II IC50), in assay [2] and in assay [4] were 0.2 µM, 7 µM and 2.7 µM, respectively.

Consider `O=C(NCc1ccncc1)c1cc(NS(=O)(=O)Cc2ccccc2)ccc1Sc1ccccc1` [Example 3], for which the half-inhibitory concentration (IC50) in assay [1] (read-out: Trpysin II IC50) and in assay [2] was over 30 µM in each case.

`N=C(N)c1cccc(CNC(=O)Cc2c(F)ccc(NS(=O)(=O)Cc3ccccc3)c2F)c1` [Example 13]: the IC50 in assay [1] (read-out: Trpysin II IC50), in assay [2] and in assay [3] was over 30 µM each time.

In the case of `N=C(N)c1cccc(CNC(=O)c2cc(NS(=O)(=O)Cc3ccccc3)ccc2Sc2ccccc2)c1` [Example 5], the figures for the IC50 in assay [1] (read-out: Trpysin II IC50) and in assay [4] were 23 µM and over 30 µM, respectively. Further, the “Thrombin II percent inhibition” value in assay [2] is given as 43% at 30. Also, the “Factor Xa percent inhibition” value in assay [3] (at 30 (uM)) was 7% at 30.

As for `O=C(Cc1c(F)ccc(NS(=O)(=O)Cc2ccccc2)c1F)NCc1ccncc1` [Example 11], the IC50 in assay [1] (read-out: Trpysin II IC50), in assay [2] and in assay [3] was over 30 µM throughout.
